Assay results reported in ChEMBL document CHEMBL1156232, “Non-classical antifolates. Part 2: synthesis, biological evaluation, and molecular modeling study of some new 2,6-substituted-quinazolin-4-ones” (Bioorg Med Chem, 2010).
Calls of active or inactive are those of the source. The rule behind the calls is not given here.

Key:
[1] = biological target: T1, Dihydrofolate reductase (Bos taurus, UniProt P00376)
T1 sequence (P00376 whole entry): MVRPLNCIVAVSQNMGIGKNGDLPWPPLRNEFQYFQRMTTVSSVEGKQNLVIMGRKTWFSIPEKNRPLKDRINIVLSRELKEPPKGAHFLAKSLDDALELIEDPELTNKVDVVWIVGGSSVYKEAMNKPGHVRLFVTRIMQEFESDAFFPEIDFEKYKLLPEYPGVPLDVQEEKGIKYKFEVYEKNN
Description: Inhibition of bovine DHFR after 2 mins

[2] = tested on: Micrococcus luteus; experiment: Antibacterial activity against Micrococcus luteus at 200 ug/disk after 24 hrs by disk diffusion method; type: functional
[3] = tested on: Candida albicans; experiment: Antifungal activity against Candida albicans after 48 hrs by microdilution susceptibility method; type: functional, organism-based
[4] = tested on: Candida albicans; experiment: Antifungal activity against Candida albicans at 200 ug/disk after 48 hrs by disk diffusion method; type: functional, organism-based
[5] = tested on: Bacillus subtilis; experiment: Antibacterial activity against Bacillus subtilis at 200 ug/disk after 24 hrs by disk diffusion method; type: functional
[6] = tested on: Staphylococcus aureus; experiment: Antibacterial activity against Staphylococcus aureus at 200 ug/disk after 24 hrs by disk diffusion method; type: functional
[7] = tested on: Escherichia coli; experiment: Antibacterial activity against Escherichia coli at 200 ug/disk after 24 hrs by disk diffusion method; type: functional; settings: for zone of inhibition at 200 µg/disc: read-out: DIZ
[8] = tested on: Pseudomonas aeruginosa; experiment: Antibacterial activity against Pseudomonas aeruginosa at 200 ug/disk after 24 hrs by disk diffusion method; type: functional
[9] = biological target: T2, Dihydrofolate reductase (Homo sapiens, UniProt P00374)
T2 sequence (P00374 whole entry): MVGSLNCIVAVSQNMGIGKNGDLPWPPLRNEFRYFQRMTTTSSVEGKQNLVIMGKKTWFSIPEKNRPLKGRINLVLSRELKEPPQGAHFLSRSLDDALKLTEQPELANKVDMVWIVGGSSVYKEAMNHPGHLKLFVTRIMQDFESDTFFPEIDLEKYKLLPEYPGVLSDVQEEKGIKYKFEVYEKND
Description: Inhibition of human DHFR after 2 mins

| Compound | IC50 [1] [µM] | diameter of the inhibition zone (DIZ) [2] | Activity [3] | Activity [4] | diameter of the inhibition zone (DIZ) [5] | diameter of the inhibition zone (DIZ) [6] | diameter of the inhibition zone (DIZ) [7] | diameter of the inhibition zone (DIZ) [8] | IC50 [9] [µM] | zone of inhibition at 200 µg/disc [7] [mm] | zone of inhibition at 200 µg/disc ([5]; read-out: DIZ) [mm] | zone of inhibition at 200 µg/disc ([8]; read-out: DIZ) [mm] | zone of inhibition at 200 µg/disc ([6]; read-out: DIZ) [mm] |
| --- | --- | --- | --- | --- | --- | --- | --- | --- | --- | --- | --- | --- | --- |
| CCSc1nc2ccc(C)cc2c(=O)n1Cc1ccccc1 | 35 | inactive | inactive | inactive | inactive | inactive | inactive | inactive |  |  |  |  |  |
| CSc1nc2ccc(C)cc2c(=O)n1Cc1ccccc1 | 20 | inactive | inactive | inactive | inactive | inactive | inactive | inactive |  |  |  |  |  |
| C=CCSc1nc2ccc(N)cc2c(=O)n1Cc1ccccc1 | 8 | inactive | inactive | inactive | inactive | inactive | inactive | inactive | 5 |  |  |  |  |
| CSc1nc2ccc(N)cc2c(=O)n1Cc1ccccc1 | 10 | inactive | inactive | inactive | inactive | inactive | inactive | inactive |  |  |  |  |  |
| CSc1nc2ccc(NC/C=C/c3ccccc3)cc2c(=O)n1Cc1ccccc1 | 0.5 | inactive | inactive | inactive | inactive | inactive |  | inactive | 2 | 15 |  |  |  |
| C=CCN(CC=C)c1ccc2nc(SC)n(Cc3ccccc3)c(=O)c2c1 | 3 | inactive | inactive | inactive | inactive | inactive | inactive | inactive | 1 |  |  |  |  |
| C=CCn1c(SSc2nc(=O)c3cc([N+](=O)[O-])ccc3n2CC=C)nc(=O)c2cc([N+](=O)[O-])ccc21 | 10 | inactive | inactive | inactive | inactive | inactive | inactive | inactive |  |  |  |  |  |
| CCOC(=O)CCSc1nc2ccc([N+](=O)[O-])cc2c(=O)n1Cc1ccccc1 | 25 | inactive | inactive | inactive |  | inactive |  |  |  | 16 | 14 | 16 |  |
| C=CC(=O)Nc1ccc2nc(SC)n(Cc3ccccc3)c(=O)c2c1 | 50 | inactive | inactive | inactive | inactive | inactive | inactive | inactive |  |  |  |  |  |
| C=CCSc1nc2ccc([N+](=O)[O-])cc2c(=O)n1Cc1ccccc1 | 3 | inactive | inactive | inactive | inactive | inactive | inactive | inactive | 2 |  |  |  |  |
| C=CCNc1ccc2nc(SCC=C)n(Cc3ccccc3)c(=O)c2c1 | 0.8 | inactive | inactive | inactive | inactive | inactive | inactive | inactive | 1 |  |  |  |  |
| C=CC(=O)Nc1ccc2nc(SC/C=C/c3ccccc3)n(Cc3ccccc3)c(=O)c2c1 | 1 | inactive | inactive | inactive | inactive |  | inactive | inactive | 2 |  |  |  | 15 |
| Nc1ccc2nc(SC/C=C/c3ccccc3)n(Cc3ccccc3)c(=O)c2c1 | 8 | inactive | inactive | inactive | inactive | inactive | inactive | inactive | 6 |  |  |  |  |
| Cc1ccc2nc(SCc3ccccc3)n(Cc3ccccc3)c(=O)c2c1 | 10 | inactive | inactive | inactive | inactive | inactive | inactive | inactive |  |  |  |  |  |
| CSc1nc2ccc([N+](=O)[O-])cc2c(=O)n1Cc1ccccc1 | 30 | inactive | inactive | inactive | inactive | inactive | inactive | inactive |  |  |  |  |  |
| Cc1ccc2nc(SC/C=C/c3ccccc3)n(Cc3ccccc3)c(=O)c2c1 | 0.5 | inactive | inactive | inactive | inactive | inactive | inactive | inactive | 1 |  |  |  |  |
| C=CCSc1nc2ccc(NC(=O)C=C)cc2c(=O)n1Cc1ccccc1 | 10 | inactive | inactive | inactive | inactive | inactive | inactive | inactive |  |  |  |  |  |
| O=c1c2cc([N+](=O)[O-])ccc2nc(SCc2ccccc2)n1Cc1ccccc1 | 30 | inactive | inactive | inactive | inactive | inactive | inactive | inactive |  |  |  |  |  |
